Test results taken from patent US12453712B2, “Antitumoral use of cabazitaxel” (Sanofi Mature IP, priority 2009, dated 2025).

Columns and labels:
[1] = test system: cancers that are resistant to hormone deprivation; conditions: docetaxel in combination with estramustine or prednisone; cited from earlier work
[2] = test system: castration resistant metastatic prostate cancer; experiment: Randomized clinical study of cabazitaxel vs mitoxantrone, each with prednisone or prednisolone: efficacy; type: in vivo, human; conditions: intention-to-treat
Method: (§1) A clinical study was performed wherein patients received either treatment with cabazitaxel or the reference treatment based on mitoxantrone each combined with prednisone or prednisolone.
(§2) More specifically, patients over 18 years of age with metastatic castration resistant metastatic prostate cancer either measurable by RECIST criteria or non-measurable disease with rising PSA levels or appearance of new lesions, ECOG (Eastern Cooperative Oncology Group) performance stage 0-2, and adequate organ function (patients had to have neutrophils >1,500 cells/mm^3, platelets >100,000 cells/mm^3, hemoglobin >10 g/dL, creatinine <1.5×upper limit of normal (ULN), total bilirubin <1×ULN, AST <1.5×ULN, and ALT <1.5×ULN) who had had prior hormone therapy, chemotherapy, and radiotherapy, but had progressive during or after docetaxel treatment (cumulative dose ≥225 mg/m^2) were randomized to 10 mg/day of prednisone with either mitoxantrone 12 mg/m^2 or cabazitaxel 25 mg/m^2, both administered every 3 weeks.
(§3) Patients with a history of congestive heart failure, or myocardial infarction within the last 6 months, or patients with uncontrolled cardiac arrhythmias, angina pectoris, and/or hypertension were not included in the study.
(§4) 720 patients were planned to be included in the clinical study: 360 in each cabazitaxel+prednisone and mitoxantrone+prednisone group. Seven hundred and fifty-five patients (755) (median age 68; 84% white) were actually enrolled, 378 in the cabazitaxel and prednisone/prednisolone group and 377 in the mitoxantrone and prednisone/prednisolone group. The maximal number of treatment cycles was 10 for cabazitaxel and 10 for mitoxantrone. The median number of treatment cycles was 6 for cabazitaxel and 4 for mitoxantrone. The median prior dose of docetaxel treatment was 576 mg/m^2 for the cabazitaxel group and 529 mg/m^2 for the mitoxantrone group. Median follow-up was 12.8 months.
The measurements of the results are performed via the same tests as at inclusion. MRI and spiral computed tomographic (CT) scans are preferably used.
The results are evaluated according to the following criteria (cf RECIST guideline): • overall survival (OS): the time from inclusion to the study to the date of death complete response (CR): disappearance of the lesions • partial response (PR): at least 30% reduction of the largest diameter of the lesion progression (PD): at least 20% increase in the sum of the largest diameter of the lesion or appearance of one or more new lesions • stable disease (SD): reduction of the tumour insufficient to be included in PR and increase of the tumour insufficient to be included in PD.
The confirmations of the measurements are made at least 4 weeks after the response criterion has been established for the first time.
The progression-free survival (PFS) is the time from inclusion in the study and the date of progression or death when the progression is either an increase of the PSA, or of the tumour, or of the pain.

[3] = Same clinical study: adverse reactions, hematologic abnormalities, treatment discontinuation, delays and dose reductions; type: in vivo, human
Method: as §1, §2, §3, §4

[4] = human, in vivo, listed as Mitoxantrone
[5] = percent of patients, laboratory values, cabazitaxel: n = 369, mitoxantrone: n = 370

Structure (SMILES): CC(=O)O[C@@]12CO[C@@H]1C[C@H](O)[C@@]1(C)C(=O)[C@H](O)C3=C(C)[C@@H](OC(=O)[C@H](O)[C@@H](NC(=O)OC(C)(C)C)c4ccccc4)C[C@@](O)([C@@H](OC(=O)c4ccccc4)[C@H]21)C3(C)C [docetaxel]
- improvement of survival [1]: 2.4 months

Structure (SMILES): O=C1c2c(O)ccc(O)c2C(=O)c2c(NCCNCCO)ccc(NCCNCCO)c21 [mitoxantrone, reference compound]
- Discontinuation of study treatment for disease progression, (%) [2]: (70.8) %
- Discontinuation of study treatment for disease progression, no. ([2]; N = 377 mitoxantrone, N = 378 cabazitaxel): 267
- Overall survival Median ([2]; 25 mg/m^2 cabazitaxel or 12 mg/m^2 mitoxantrone every 3 weeks with prednisone): 12.7 months
- PFS Median ([2]; earliest progression in tumor, PSA or pain): 1.4 months
- Rates of febrile neutropenia ([3]; Example 1): 1.3%
- Dose reductions, cycles (%) ([3]; human, in vivo): 5.1%
- Dose reductions, no. of cycles ([3]; human, in vivo): 88
- Treatment delays >9 days, cycles (%) ([3]; human, in vivo): 1.6%
- Treatment delays >9 days, no. of cycles ([3]; human, in vivo): 28
- Treatment delays ≤9 days, cycles (%) ([3]; human, in vivo): 6.3%
- Treatment delays ≤9 days, no. of cycles ([3]; human, in vivo): 110
- Dose reductions, cycles (%) [3, 4]: (5.1) %
- Treatment delays >9 days, cycles (%) [3, 4]: (1.6) %
- Treatment delays ≤9 days, cycles (%) [3, 4]: (6.3) %
- Discontinuation of study treatment for adverse event, (%) ([3]; intention-to-treat): (8.5) %
- Discontinuation of study treatment for adverse event, no. ([3]; intention-to-treat, N = 377 mitoxantrone, N = 378 cabazitaxel): 32
- Abdominal Pain Grade 1-4, (%) ([3]; percent of patients of n = 371): (6%)
- Alopecia Grade 1-4, (%) ([3]; percent of patients of n = 371): (5%)
- Anorexia Grade 1-4, (%) ([3]; percent of patients of n = 371): (11%)
- Anorexia Grade 3-4, (%) ([3]; percent of patients of n = 371): (<1%)
- Arrhythmia Grade 1-4, (%) ([3]; percent of patients of n = 371): (2%)
- Arrhythmia Grade 3-4, (%) ([3]; percent of patients of n = 371): (<1%)
- Arthralgia Grade 1-4, (%) ([3]; percent of patients of n = 371): (8%)
- Arthralgia Grade 3-4, (%) ([3]; percent of patients of n = 371): (1%)
- Asthenia Grade 1-4, (%) ([3]; percent of patients of n = 371): (12%)
- Asthenia Grade 3-4, (%) ([3]; percent of patients of n = 371): (2%)
- Back Pain Grade 1-4, (%) ([3]; percent of patients of n = 371): (12%)
- Back Pain Grade 3-4, (%) ([3]; percent of patients of n = 371): (3%)
- Bone Pain Grade 1-4, (%) ([3]; percent of patients of n = 371): (5%)
- Bone Pain Grade 3-4, (%) ([3]; percent of patients of n = 371): (2%)
- Constipation Grade 1-4, (%) ([3]; percent of patients of n = 371): (15%)
- Constipation Grade 3-4, (%) ([3]; percent of patients of n = 371): (<1%)
- Cough Grade 1-4, (%) ([3]; percent of patients of n = 371): (6%)
- Dehydration Grade 1-4, (%) ([3]; percent of patients of n = 371): (3%)
- Dehydration Grade 3-4, (%) ([3]; percent of patients of n = 371): (<1%)
- Diarrhea Grade 1-4, (%) ([3]; percent of patients of n = 371): (11%)
- Diarrhea Grade 3-4, (%) ([3]; percent of patients of n = 371): (<1%)
- Dizziness Grade 1-4, (%) ([3]; percent of patients of n = 371): (6%)
- Dizziness Grade 3-4, (%) ([3]; percent of patients of n = 371): (<1%)
- Dysgeusia Grade 1-4, (%) ([3]; percent of patients of n = 371): (4%)
- Dyspepsia Grade 1-4, (%) ([3]; percent of patients of n = 371): (2%)
- Dyspnea Grade 1-4, (%) ([3]; percent of patients of n = 371): (4%)
- Dyspnea Grade 3-4, (%) ([3]; percent of patients of n = 371): (<1%)
- Dysuria Grade 1-4, (%) ([3]; percent of patients of n = 371): (1%)
- Fatigue Grade 1-4, (%) ([3]; percent of patients of n = 371): (27%)
- Fatigue Grade 3-4, (%) ([3]; percent of patients of n = 371): (3%)
- Febrile Neutropenia Grade 1-4, (%) ([3]; percent of patients of n = 371): (1%)
- Febrile Neutropenia Grade 3-4, (%) ([3]; percent of patients of n = 371): (1%)
- Headache Grade 1-4, (%) ([3]; percent of patients of n = 371): (5%)
- Hematuria Grade 1-4, (%) ([3]; percent of patients of n = 371): (4%)
- Hematuria Grade 3-4, (%) ([3]; percent of patients of n = 371): (<1%)
- Hypotension Grade 1-4, (%) ([3]; percent of patients of n = 371): (2%)
- Hypotension Grade 3-4, (%) ([3]; percent of patients of n = 371): (<1%)
- Mucosal Inflammation Grade 1-4, (%) ([3]; percent of patients of n = 371): (3%)
- Mucosal Inflammation Grade 3-4, (%) ([3]; percent of patients of n = 371): (<1%)
- Muscle Spasms Grade 1-4, (%) ([3]; percent of patients of n = 371): (3%)
- Musculoskeletal Pain Grade 1-4, (%) ([3]; percent of patients of n = 371): (5%)
- Musculoskeletal Pain Grade 3-4, (%) ([3]; percent of patients of n = 371): (<1%)
- Nausea Grade 1-4, (%) ([3]; percent of patients of n = 371): (23%)
- Nausea Grade 3-4, (%) ([3]; percent of patients of n = 371): (<1%)
- Pain Grade 1-4, (%) ([3]; percent of patients of n = 371): (5%)
- Pain Grade 3-4, (%) ([3]; percent of patients of n = 371): (2%)
- Pain in Extremity Grade 1-4, (%) ([3]; percent of patients of n = 371): (7%)
- Pain in Extremity Grade 3-4, (%) ([3]; percent of patients of n = 371): (1%)
- Peripheral Edema Grade 1-4, (%) ([3]; percent of patients of n = 371): (9%)
- Peripheral Edema Grade 3-4, (%) ([3]; percent of patients of n = 371): (<1%)
- Peripheral Neuropathy Grade 1-4, (%) ([3]; percent of patients of n = 371): (3.2%)
- Peripheral Neuropathy Grade 3-4, (%) ([3]; percent of patients of n = 371): (<1%)
- Pneumonia Grade 1-4, (%) ([3]; percent of patients of n = 371): (1%)
- Pneumonia Grade 3-4, (%) ([3]; percent of patients of n = 371): (<1%)
- Pyrexia Grade 1-4, (%) ([3]; percent of patients of n = 371): (6%)
- Pyrexia Grade 3-4, (%) ([3]; percent of patients of n = 371): (<1%)
- Urinary Tract Infection Grade 1-4, (%) ([3]; percent of patients of n = 371): (3%)
- Urinary Tract Infection Grade 3-4, (%) ([3]; percent of patients of n = 371): (1%)
- Vomiting Grade 1-4, (%) ([3]; percent of patients of n = 371): (10%)
- Weight Decreased Grade 1-4, (%) ([3]; percent of patients of n = 371): (8%)
- Weight Decreased Grade 3-4, (%) ([3]; percent of patients of n = 371): (<1%)
- Anemia Grade 1-4, (%) [3, 5]: (82%)
- Anemia Grade 3-4, (%) [3, 5]: (5%)
- Leukopenia Grade 1-4, (%) [3, 5]: (93%)
- Leukopenia Grade 3-4, (%) [3, 5]: (42%)
- Neutropenia Grade 1-4, (%) [3, 5]: (87%)
- Neutropenia Grade 3-4, (%) [3, 5]: 58.0%
- Thrombocytopenia Grade 1-4, (%) [3, 5]: (43%)
- Thrombocytopenia Grade 3-4, (%) [3, 5]: (2%)
- Neutropenia Grade 3-4, (%) ([3]; percent of patients, laboratory values, cabazitaxel: n = 369, mitoxantrone: n = 370, listed as Mitoxantrone): (58%)
